From ChEMBL document CHEMBL2203234, “Optimisation of imidazole compounds as selective TAAR1 agonists: discovery of RO5073012” (Bioorg Med Chem Lett, 2012)

Legend:
[1] = target: Cannabinoid receptor 2 (Homo sapiens) (UniProt P34972); test: Inhibition of human CB2 receptor at 10 uM by CEREP assay
[2] = target: Adenosine receptor A2a (Homo sapiens) (UniProt P29274); test: Inhibition of human A2A receptor at 10 uM by CEREP assay
[3] = target: Pituitary adenylate cyclase-activating polypeptide type I receptor (Homo sapiens) (UniProt P41586); test: Inhibition of human PAC1 receptor at 10 uM by CEREP assay
[4] = target: Phosphodiesterase 6 (Homo sapiens) (UniProt Q13956+P18545+P35913+O43924+P16499+P51160); test: Inhibition of human PDE6 at 10 uM by CEREP assay; format: protein assay
[5] = target: Endothelin-1 receptor (Homo sapiens) (UniProt P25101); test: Inhibition of human ETA receptor at 10 uM by CEREP assay
[6] = target: Neuromedin-K receptor (Homo sapiens) (UniProt P29371); test: Inhibition of human Nk3 receptor at 10 uM by CEREP assay
[7] = Inhibition of NMDA receptor PCP site at 10 uM by CEREP assay
[8] = Inhibition of sst receptor at 10 uM by CEREP assay
[9] = Inhibition of ML1 receptor at 10 uM by CEREP assay
[10] = target: Neuropeptide Y receptor type 2 (Homo sapiens) (UniProt P49146); test: Inhibition of human Y2 receptor at 10 uM by CEREP assay
[11] = target: Muscarinic acetylcholine receptor M4 (Homo sapiens) (UniProt P08173); test: Inhibition of human M4 receptor at 10 uM by CEREP assay
[12] = Oral bioavailability in rat at 10 mg/kg; format: ADME, organism-based; conditions: in vivo
[13] = target: D(1A) dopamine receptor (Homo sapiens) (UniProt P21728); test: Inhibition of human D1 receptor at 10 uM by CEREP assay
[14] = target: Glucagon receptor (Homo sapiens) (UniProt P47871); test: Inhibition of human glucagon receptor at 10 uM by CEREP assay
[15] = target: Muscarinic acetylcholine receptor M2 (Homo sapiens) (UniProt P08172); test: Inhibition of human M2 receptor at 10 uM by CEREP assay
[16] = target: 4-aminobutyrate aminotransferase, mitochondrial (Homo sapiens) (UniProt P80404); test: Inhibition of GABA transaminase at 10 uM by CEREP assay
[17] = target: Muscarinic acetylcholine receptor M3 (Homo sapiens) (UniProt P20309); test: Inhibition of human M3 receptor at 10 uM by CEREP assay
[18] = target: Gastrin/cholecystokinin type B receptor (Homo sapiens) (UniProt P32239); test: Inhibition of human CCKB receptor at 10 uM by CEREP assay
Homo sapiens [19] = species: Homo sapiens; test: Inhibition of human I1 receptor at 10 uM by CEREP assay
[20] = target: Sodium-dependent serotonin transporter (Homo sapiens) (UniProt P31645); test: Inhibition of human 5-HT transporter at 10 uM by CEREP assay
[21] = target: Muscarinic acetylcholine receptor M1 (Homo sapiens) (UniProt P11229); test: Inhibition of human M1 receptor at 10 uM by CEREP assay
[22] = Inhibition of human I1 receptor by CEREP assay
[23] = Inhibition of tyrosine hydroxylase at 10 uM by CEREP assay
[24] = target: 5-hydroxytryptamine receptor 7 (Homo sapiens) (UniProt P34969); test: Inhibition of human 5-HT7 receptor at 10 uM by CEREP assay
[25] = target: D(1B) dopamine receptor (Homo sapiens) (UniProt P21918); test: Inhibition of human D5 receptor at 10 uM by CEREP assay
[26] = target: Histamine H3 receptor (Homo sapiens) (UniProt Q9Y5N1); test: Inhibition of human H3 receptor at 10 uM by CEREP assay
[27] = Cmax in mouse at 7.1 mg/kg, po; format: ADME, organism-based; design: dose 7.1 mg/kg, route oral; conditions: in vivo
Homo sapiens [28] = species: Homo sapiens; test: Inhibition of human AMPA receptor at 10 uM by CEREP assay
[29] = target: Cannabinoid receptor 1 (Homo sapiens) (UniProt P21554); test: Inhibition of human CB1 receptor at 10 uM by CEREP assay
[30] = target: Adenosine receptor A1 (Homo sapiens) (UniProt P30542); test: Inhibition of human A1 receptor at 10 uM by CEREP assay
[31] = Inhibition of alpha 2 adrenergic receptor by CEREP assay
[32] = target: Phenylethanolamine N-methyltransferase (Homo sapiens) (UniProt P11086); test: Inhibition of PNMT at 10 uM by CEREP assay
[33] = Inhibition of sigma receptor at 10 uM by CEREP assay
[34] = target: Substance-P receptor (Homo sapiens) (UniProt P25103); test: Inhibition of human Nk1 receptor at 10 uM by CEREP assay

Sequence of D(1B) dopamine receptor (Homo sapiens) (P21918 whole entry): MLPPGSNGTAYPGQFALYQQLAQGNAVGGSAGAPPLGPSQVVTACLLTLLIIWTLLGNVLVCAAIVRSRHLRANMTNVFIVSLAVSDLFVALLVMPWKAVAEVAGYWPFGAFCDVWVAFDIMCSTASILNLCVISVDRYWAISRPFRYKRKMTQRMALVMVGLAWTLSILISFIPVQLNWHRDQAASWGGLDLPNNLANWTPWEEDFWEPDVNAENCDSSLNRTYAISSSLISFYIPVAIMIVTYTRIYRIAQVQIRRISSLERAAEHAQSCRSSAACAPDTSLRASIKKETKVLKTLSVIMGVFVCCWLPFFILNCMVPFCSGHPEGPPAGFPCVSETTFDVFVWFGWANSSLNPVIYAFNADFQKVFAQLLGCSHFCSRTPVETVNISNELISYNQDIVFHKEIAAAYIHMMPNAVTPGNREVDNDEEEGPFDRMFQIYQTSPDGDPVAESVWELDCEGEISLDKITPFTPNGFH
Sequence of Neuromedin-K receptor (Homo sapiens) (P29371 whole entry): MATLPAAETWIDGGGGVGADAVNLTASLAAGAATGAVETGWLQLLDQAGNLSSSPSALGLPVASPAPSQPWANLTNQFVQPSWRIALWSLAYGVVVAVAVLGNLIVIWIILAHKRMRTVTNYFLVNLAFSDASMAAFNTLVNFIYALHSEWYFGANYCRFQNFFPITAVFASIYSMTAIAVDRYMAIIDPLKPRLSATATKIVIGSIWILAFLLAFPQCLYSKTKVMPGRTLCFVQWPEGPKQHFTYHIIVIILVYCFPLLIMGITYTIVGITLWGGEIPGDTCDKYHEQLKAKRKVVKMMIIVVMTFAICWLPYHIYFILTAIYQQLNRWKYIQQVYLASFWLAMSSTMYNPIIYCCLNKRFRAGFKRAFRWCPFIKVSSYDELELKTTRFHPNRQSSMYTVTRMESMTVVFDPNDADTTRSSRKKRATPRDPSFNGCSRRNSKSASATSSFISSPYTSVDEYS
Sequence of Gastrin/cholecystokinin type B receptor (Homo sapiens) (P32239 whole entry): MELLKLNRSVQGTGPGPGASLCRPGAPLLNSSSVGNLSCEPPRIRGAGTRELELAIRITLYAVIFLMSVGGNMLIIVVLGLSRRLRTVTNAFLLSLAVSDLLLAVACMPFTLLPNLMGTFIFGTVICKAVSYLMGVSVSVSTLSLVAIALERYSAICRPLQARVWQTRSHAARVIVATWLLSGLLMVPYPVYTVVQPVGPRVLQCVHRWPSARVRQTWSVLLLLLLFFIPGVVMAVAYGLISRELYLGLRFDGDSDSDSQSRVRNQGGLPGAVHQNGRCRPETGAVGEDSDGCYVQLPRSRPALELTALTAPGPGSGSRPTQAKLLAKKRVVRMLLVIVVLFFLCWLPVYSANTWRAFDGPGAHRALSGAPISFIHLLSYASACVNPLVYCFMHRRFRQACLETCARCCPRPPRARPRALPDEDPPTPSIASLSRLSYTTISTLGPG
Sequence of Sodium-dependent serotonin transporter (Homo sapiens) (P31645 whole entry, looked up): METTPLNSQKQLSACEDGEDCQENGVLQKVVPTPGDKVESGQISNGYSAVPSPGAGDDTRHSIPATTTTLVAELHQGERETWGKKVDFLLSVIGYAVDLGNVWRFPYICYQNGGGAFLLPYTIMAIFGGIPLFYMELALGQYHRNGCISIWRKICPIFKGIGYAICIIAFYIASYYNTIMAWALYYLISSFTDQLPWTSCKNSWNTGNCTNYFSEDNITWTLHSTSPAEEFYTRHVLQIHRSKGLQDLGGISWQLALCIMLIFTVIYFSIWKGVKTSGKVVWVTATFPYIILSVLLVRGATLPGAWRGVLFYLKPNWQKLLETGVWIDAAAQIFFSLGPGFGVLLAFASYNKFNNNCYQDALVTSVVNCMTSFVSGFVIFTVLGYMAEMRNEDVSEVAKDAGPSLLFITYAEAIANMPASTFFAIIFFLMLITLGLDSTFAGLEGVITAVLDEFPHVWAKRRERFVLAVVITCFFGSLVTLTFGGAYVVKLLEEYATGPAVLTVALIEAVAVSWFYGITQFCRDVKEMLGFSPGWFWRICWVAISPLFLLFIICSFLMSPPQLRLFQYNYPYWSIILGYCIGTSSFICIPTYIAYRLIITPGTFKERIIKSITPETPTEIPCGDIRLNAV
Sequence of Cannabinoid receptor 2 (Homo sapiens) (P34972 whole entry): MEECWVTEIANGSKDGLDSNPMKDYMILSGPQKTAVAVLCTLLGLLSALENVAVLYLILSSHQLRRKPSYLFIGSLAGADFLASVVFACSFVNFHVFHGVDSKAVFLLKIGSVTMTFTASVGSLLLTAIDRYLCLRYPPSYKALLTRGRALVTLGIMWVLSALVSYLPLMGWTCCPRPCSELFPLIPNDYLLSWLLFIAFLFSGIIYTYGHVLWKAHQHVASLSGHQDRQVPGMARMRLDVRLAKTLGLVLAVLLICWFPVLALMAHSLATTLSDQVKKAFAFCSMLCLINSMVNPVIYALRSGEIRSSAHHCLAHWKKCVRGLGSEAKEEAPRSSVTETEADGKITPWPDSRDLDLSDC
Sequence of Phenylethanolamine N-methyltransferase (Homo sapiens) (P11086 whole entry): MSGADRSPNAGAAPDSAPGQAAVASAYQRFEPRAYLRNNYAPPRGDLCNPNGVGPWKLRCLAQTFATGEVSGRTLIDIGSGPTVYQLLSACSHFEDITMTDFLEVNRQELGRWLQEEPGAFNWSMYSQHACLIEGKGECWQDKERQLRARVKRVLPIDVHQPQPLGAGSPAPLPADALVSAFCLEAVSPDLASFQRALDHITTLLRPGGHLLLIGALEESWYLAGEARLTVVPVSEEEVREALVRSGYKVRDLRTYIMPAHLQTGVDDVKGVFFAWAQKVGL
Sequence of 5-hydroxytryptamine receptor 7 (Homo sapiens) (P34969 whole entry): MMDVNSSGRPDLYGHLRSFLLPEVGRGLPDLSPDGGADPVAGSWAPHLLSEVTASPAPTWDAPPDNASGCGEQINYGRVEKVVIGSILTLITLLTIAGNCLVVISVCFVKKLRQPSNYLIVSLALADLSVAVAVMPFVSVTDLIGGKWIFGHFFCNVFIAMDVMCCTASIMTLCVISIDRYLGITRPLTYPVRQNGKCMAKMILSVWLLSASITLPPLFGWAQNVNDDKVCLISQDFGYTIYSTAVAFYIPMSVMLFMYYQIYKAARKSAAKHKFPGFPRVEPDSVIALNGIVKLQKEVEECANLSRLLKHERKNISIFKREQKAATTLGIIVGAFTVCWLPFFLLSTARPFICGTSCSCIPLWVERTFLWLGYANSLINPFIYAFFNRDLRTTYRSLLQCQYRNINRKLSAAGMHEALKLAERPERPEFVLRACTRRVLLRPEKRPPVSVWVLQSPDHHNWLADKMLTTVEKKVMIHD
Sequence of Adenosine receptor A1 (Homo sapiens) (P30542 whole entry): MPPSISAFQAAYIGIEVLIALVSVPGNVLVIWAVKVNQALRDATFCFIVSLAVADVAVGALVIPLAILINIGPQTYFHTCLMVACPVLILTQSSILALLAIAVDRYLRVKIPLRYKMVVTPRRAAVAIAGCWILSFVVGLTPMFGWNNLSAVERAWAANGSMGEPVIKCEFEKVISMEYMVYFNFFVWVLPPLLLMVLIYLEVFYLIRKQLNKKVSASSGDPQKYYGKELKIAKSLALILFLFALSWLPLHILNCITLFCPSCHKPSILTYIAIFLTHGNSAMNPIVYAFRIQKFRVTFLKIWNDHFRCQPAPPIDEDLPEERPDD
Sequence of 4-aminobutyrate aminotransferase, mitochondrial (Homo sapiens) (P80404 whole entry): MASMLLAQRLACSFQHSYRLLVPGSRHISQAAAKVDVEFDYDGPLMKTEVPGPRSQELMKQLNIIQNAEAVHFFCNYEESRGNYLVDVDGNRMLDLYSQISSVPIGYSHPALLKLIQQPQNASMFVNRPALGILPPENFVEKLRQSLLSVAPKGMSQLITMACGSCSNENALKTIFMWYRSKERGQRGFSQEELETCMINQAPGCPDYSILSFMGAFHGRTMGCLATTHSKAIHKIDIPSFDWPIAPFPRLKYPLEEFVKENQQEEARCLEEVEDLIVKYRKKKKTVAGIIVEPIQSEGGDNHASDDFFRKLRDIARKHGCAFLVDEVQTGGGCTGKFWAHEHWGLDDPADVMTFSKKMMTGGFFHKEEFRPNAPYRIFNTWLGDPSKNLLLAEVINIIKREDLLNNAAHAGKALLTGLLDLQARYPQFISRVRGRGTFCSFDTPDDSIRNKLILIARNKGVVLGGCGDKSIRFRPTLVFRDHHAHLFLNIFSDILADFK
Sequence of Endothelin-1 receptor (Homo sapiens) (P25101 whole entry): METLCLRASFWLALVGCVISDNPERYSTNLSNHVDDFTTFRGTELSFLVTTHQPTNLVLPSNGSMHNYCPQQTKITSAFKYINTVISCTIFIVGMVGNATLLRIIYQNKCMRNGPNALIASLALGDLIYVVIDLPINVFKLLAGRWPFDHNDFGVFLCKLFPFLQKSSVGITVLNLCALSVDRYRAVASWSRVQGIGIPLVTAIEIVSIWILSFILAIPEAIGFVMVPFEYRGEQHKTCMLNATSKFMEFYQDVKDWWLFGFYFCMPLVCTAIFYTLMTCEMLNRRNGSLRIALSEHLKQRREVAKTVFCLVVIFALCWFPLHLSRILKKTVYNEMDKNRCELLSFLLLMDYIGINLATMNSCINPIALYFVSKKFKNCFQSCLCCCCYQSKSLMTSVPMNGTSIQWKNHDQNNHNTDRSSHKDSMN
Sequence of Glucagon receptor (Homo sapiens) (P47871 whole entry): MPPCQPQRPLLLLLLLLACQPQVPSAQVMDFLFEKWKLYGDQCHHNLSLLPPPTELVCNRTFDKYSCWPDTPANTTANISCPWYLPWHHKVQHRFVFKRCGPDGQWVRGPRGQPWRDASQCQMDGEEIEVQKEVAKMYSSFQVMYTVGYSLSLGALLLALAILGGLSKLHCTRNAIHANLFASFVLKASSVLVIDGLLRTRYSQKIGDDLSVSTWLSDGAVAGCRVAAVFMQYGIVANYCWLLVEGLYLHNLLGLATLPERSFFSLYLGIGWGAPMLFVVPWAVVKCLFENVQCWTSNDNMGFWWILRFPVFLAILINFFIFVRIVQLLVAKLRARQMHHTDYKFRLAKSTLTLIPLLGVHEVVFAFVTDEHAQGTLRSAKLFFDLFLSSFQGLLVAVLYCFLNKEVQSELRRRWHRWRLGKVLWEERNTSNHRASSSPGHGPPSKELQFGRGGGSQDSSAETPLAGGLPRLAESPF

CCc1cccc(CC)c1Cc1ncc[nH]1
inhibition [1]: -4%
inhibition [2]: -6%
inhibition [3]: 21%
inhibition [4]: 6%
inhibition [5]: -3%
inhibition [6]: 10%
inhibition [7]: 45%
inhibition [8]: -6%
inhibition [9]: 32%
inhibition [10]: 15%
inhibition [11]: 31%
bioavailability [12]: 17%
inhibition [13]: 8%
inhibition [14]: -5%
inhibition [15]: 36%
inhibition [16]: 17%
inhibition [17]: 25%
inhibition [18]: 6%
inhibition (Homo sapiens [19]): 78%
inhibition [20]: 4%
inhibition [21]: 24%
Ki [22]: 0.66 µM
inhibition [23]: 1%
inhibition [24]: 54%
inhibition [25]: 17%
inhibition [26]: 6%
Cmax [27]: 0.3 µg/mL
inhibition (Homo sapiens [28]): 11%
inhibition [29]: 4%
inhibition [30]: 1%
Ki [31]: 2.4 µM
inhibition [32]: 22%
inhibition [33]: 14%
inhibition [34]: 5%
